Assay results: paper PMC12467740, “Synthesis, Characterization, and Screening Anticancer—Antibiofilm Activities of Theophylline Derivatives Containing CF3/OCF3 Moiety” (Biology, 2025)

Legend:
Type in all cases: cell-based
[1] = tested on: Candida albicans (ATCC 10231); assay: Broth microdilution MIC; conditions: fluconazole 0.3125–640 µg/mL
Experimental: (§1) The antibacterial activities of the compounds were determined using the broth microdilution method, as per the advice of international standards. […] Standard bacterial strains Staphylococcus aureus (ATCC 29213), Enterococcus faecalis (ATCC 29212), Escherichia coli (ATCC 25922), Pseudomonas aeruginosa (ATCC 27853), and yeast Candida albicans (ATCC 10231), were previously stored at −80 °C then revived at room temperature. Microorganisms were inoculated using overnight broth cultures. Stock solutions of the samples studied at a concentration of 1000 µg/mL were prepared with dimethyl sulfoxide (DMSO). An amount of 100 µL of Mueller Hinton Broth (Liofilchem, Italy) were dispensed into all wells of 96-well microplates. […] Serial dilutions of 0.00048–1% DMSO were made into a column of the microplate to determine its antimicrobial activity. 0.5 McFarland standard in physiological saline from each microorganism strains were prepared and 20 µL of the prepared suspension was added to the wells. An amount of 100 µL Mueller Hinton Broth in a column of the microplate served as a negative control and another column of the microplate containing 100 µL of Mueller Hinton Broth with 20 µL of each microorganism added served as a growth control. As positive controls, ciprofloxacin was applied against bacterial strains at a concentration range of 0.03125–64 µg/mL, and fluconazole was used against Candida albicans at a concentration range of 0.3125–640 µg/mL. The plates were covered with parafilm, incubated at 36.5 °C in an aerobic environment for 24 h. After incubation, the optical density was measured at 620 nm. The first concentration without microbial growth was determined as MIC and experiments were repeated twice.

Candida albicans = assay: Well plate biofilm formation assay (crystal violet); conditions: over the concentration range given per compound (Table 4)
Experimental: (§2) The well plate assay was utilized to test the effectiveness of compounds in inhibiting biofilms made by microorganisms. An amount of 100 μL of Brucella broth (Remel, Lenexa, KS, USA) containing 1% and 20% glucose (Biolife, Milan, Italy), were dispensed into the test wells. In the next step, 100 μL of compounds ranging from 0.244 to 1000 μg/mL were poured into the wells. […] Then, 0.5 McFarland standard in physiological saline from each microorganism strain were prepared and 20 μL of the prepared suspension was added to the wells. A column of the microplate containing 100 μL Brucella broth served as a negative control and another column of the microplate containing 100 μL Brucella with 20 μL of each microorganism added served as a growth control. As positive controls, ciprofloxacin was applied against bacterial strains at a concentration range of 0.03125-64 μg/mL, and fluconazole was used against Candida albicans at a concentration range of 0.3125-640 μg/mL. Plates were left to incubate at 36.5 °C for a day. The plates were emptied and then washed three times with 300 μL of deionized water. The wells were left to dry for half an hour. The next step was staining with 0.1% (w/v) violet dye ([…]), cleaning three times with deionized water, and drying at room temperature. The crystal violet adhering to the wall of the wells was dissolved with 95% ethanol, and the optical density was measured at 570 nm. The test was run two times, and the mean value was calculated. Biofilm preventing (%) = {(ODb - ODc)/ODb} × 100.

[2] = tested on: Enterococcus faecalis (ATCC 29212); assay: Broth microdilution MIC; conditions: ciprofloxacin 0.03125–64 µg/mL
Experimental: as §1

[3] = tested on: Escherichia coli (ATCC 25922); assay: Broth microdilution MIC; conditions: ciprofloxacin 0.03125–64 µg/mL
Experimental: as §1

[4] = tested on: Pseudomonas aeruginosa (ATCC 27853); assay: Broth microdilution MIC; conditions: ciprofloxacin 0.03125–64 µg/mL
Experimental: as §1

[5] = tested on: Staphylococcus aureus (ATCC 29213); assay: Broth microdilution MIC; conditions: ciprofloxacin 0.03125–64 µg/mL
Experimental: as §1

Escherichia coli = assay: Well plate biofilm formation assay (crystal violet); conditions: over the concentration range given per compound (Table 4)
Experimental: as §2

Pseudomonas aeruginosa = assay: as above; conditions: over the concentration range given per compound (Table 4)
Experimental: as §2

Staphylococcus aureus = assay: as above; conditions: over the concentration range given per compound (Table 4); 1c and 1e at 1000 µg/mL
Experimental: as §2

Enterococcus faecalis = assay: as above; conditions: over the concentration range given per compound (Table 4)
Experimental: as §2

Row | SMILES | Microbial growth in positive control wells [1] | Antibiofilm activity Candida albicans (Candida albicans) [%] | Microbial growth in positive control wells [2] | Microbial growth in positive control wells [3] | Microbial growth in positive control wells [4] | Microbial growth in positive control wells [5] | Antibiofilm activity Escherichia coli (Escherichia coli) [%] | Antibiofilm activity Pseudomonas aeruginosa (Pseudomonas aeruginosa) [%] | Antibiofilm activity Staphylococcus aureus (Staphylococcus aureus) [%] | Antibiofilm activity Enterococcus faecalis (Enterococcus faecalis) [%]
1 | OC(Cn1cncn1)(Cn1cncn1)c1ccc(F)cc1F [Fluconazole, fluconazole, reference compound] | no microbial growth was observed | 29.10 | – | – | – | – | – | – | – | –
2 | O=C(O)c1cn(C2CC2)c2cc(N3CCNCC3)c(F)cc2c1=O [Ciprofloxacin, ciprofloxacin, reference compound] | – | – | no microbial growth was observed | no microbial growth was observed | no microbial growth was observed | no microbial growth was observed | 36.67 | 35.79 | 50.56 | 18.11
